Data reported in US6914045B2, “Glycopeptide antibiotics” (Wyeth Holdings Corporation, priority 2001, dated 2005).
≈ marks a conversion by molar mass, not a printed value.

What was measured:
Enterococcus sp. = experiment: in vitro antibacterial evaluation, MIC by broth dilution; type: cell-based; settings: broth dilution, 18 hours at 35° C.
In short: (§1)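 Following National Committee for Clinical Laboratory Standards recommendations (M7-A2), susceptibility was measured by dilution in Muller-Hinton II […]. Bacteria were seeded at 5×10^5 CFU/mL against compound concentrations from 64 down to 0.06 μg/mL.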

Escherichia coli = experiment: as above; type: cell-based; settings: 18 hours at 35° C., strain ATCC 25922
In short: as §1

Staphylococcus sp. = experiment: as above; type: cell-based; settings: broth dilution, 18 hours at 35° C.
In short: as §1

Streptococcus sp. = experiment: as above; type: cell-based; settings: broth dilution, 18 hours at 35° C.
In short: as §1

[1] = system: Enterococcus faecalis (GC 6189); experiment: acute lethal infection in mice; type: in vivo; settings: female CD-1 mice, intraperitoneal challenge, intravenous 30 min. after infection, 7 day survival
In short: (§2)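 Intraperitoneal challenge of female CD-1 mice with a bacterial dose lethal to untreated animals within 24-48 hr; single iv treatment 30 min later, 5 mice per dose level. Survival is scored at day 7 and pooled from three experiments to give the median effective dose.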

[2] = system: Staphylococcus aureus-SMITH (GC 4543); experiment: acute lethal infection in mice; type: in vivo; settings: acute lethal infection, female CD-1 mice, intraperitoneal challenge, intravenous 30 min. after infection, 7 day survival
In short: as §2

[3] = system: Streptococcus pneumoniae (GC 1894); experiment: acute lethal infection in mice; type: in vivo; settings: female CD-1 mice, intraperitoneal challenge, intravenous 30 min. after infection, 7 day survival
In short: as §2

Question: `CCCC(C)C1OCC2OC(OC3C(CO)OC(Oc4ccc(CC5NC(=O)C(C(C)c6ccccc6)NC(=O)CNC(=O)C(CO)NC(=O)C(C(O)C6CNC(=N)N6C6OC(CO)C(O)C(O)C6O)NC(=O)C(C(O)C6CNC(=N)N6)NC5=O)cc4)C(O)C3O)C(O)C(O)C2O1` (stereo not drawn) [Example 111, Cyclo[glycyl-β-methylphenylalanyl-O-[4-O-[4,6-O-(2-methylpentylidene)hexopyranosyl]-hexopyranosyl]tyrosyl-3-(2-iminoimidazolidin-4-yl)seryl-3-(3-hexopyranosyl-2-iminoimidazolidin-4-yl)serylseryl]] was tested. Which “MIC Enterococcus avium (GC 4558)” value (Enterococcus sp.; Enterococcus avium (GC 4558)) did it give?
Answer: The value was 2 µg/mL (≈ 1.45 µM).

Question: And the “MIC Enterococcus faecalis (ATCC 29212)” value (Enterococcus sp.; Enterococcus faecalis (ATCC 29212))?
Answer: The value was 2 µg/mL (≈ 1.45 µM).

Question: And the “MIC Enterococcus faecalis (GC 2242)” value (Enterococcus sp.; Enterococcus faecalis (GC 2242))?
Answer: The value was 1 µg/mL (≈ 0.726 µM).

Question: And the “MIC Enterococcus faecalis (GC 4552)” value (Enterococcus sp.; Enterococcus faecalis (GC 4552))?
Answer: Its value is 2 µg/mL (≈ 1.45 µM).

Question: And the “MIC Enterococcus faecalis (GC 4553)” value (Enterococcus sp.; Enterococcus faecalis (GC 4553))?
Answer: The value was 2 µg/mL (≈ 1.45 µM).

Question: What about the “MIC Enterococcus faecalis (GC 4554)” value (Enterococcus sp.; Enterococcus faecalis (GC 4554)) of the same compound?
Answer: The value was 2 µg/mL (≈ 1.45 µM).

Question: What about the “MIC Enterococcus faecium (GC 2243)” value (Enterococcus sp.; Enterococcus faecium (GC 2243)) of the same compound?
Answer: Its value is 1 µg/mL (≈ 0.726 µM).

Question: What about the “MIC Enterococcus faecium (GC 4556)” value (Enterococcus sp.; Enterococcus faecium (GC 4556)) of the same compound?
Answer: Its value is 2 µg/mL (≈ 1.45 µM).

Question: And the “MIC Enterococcus faecium (GC 4557)” value (Enterococcus sp.; Enterococcus faecium (GC 4557))?
Answer: Its value is 0.5 µg/mL (≈ 0.363 µM).

Question: And the “MIC Enterococcus faecalis (ATCC 29212)” value (Enterococcus sp.; strain ATCC 29212)?
Answer: The value was 2 µg/mL (≈ 1.45 µM).

Question: And the “MIC Enterococcus faecalis (GC 2242)” value (Enterococcus sp.; strain GC 2242)?
Answer: Its value is 1 µg/mL (≈ 0.726 µM).

Question: And the “MIC Enterococcus faecium (GC 2243)” value (Enterococcus sp.; strain GC 2243)?
Answer: The value was 1 µg/mL (≈ 0.726 µM).

Question: What about the “MIC Enterococcus faecalis (GC 4552)” value (Enterococcus sp.; strain GC 4552) of the same compound?
Answer: Its value is 2 µg/mL (≈ 1.45 µM).

Question: And the “MIC Enterococcus faecalis (GC 4553)” value (Enterococcus sp.; strain GC 4553)?
Answer: Its value is 2 µg/mL (≈ 1.45 µM).

Question: What about the “MIC Enterococcus faecalis (GC 4554)” value (Enterococcus sp.; strain GC 4554) of the same compound?
Answer: The value was 2 µg/mL (≈ 1.45 µM).

Question: And the “MIC Enterococcus faecium (GC 4556)” value (Enterococcus sp.; strain GC 4556)?
Answer: Its value is 2 µg/mL (≈ 1.45 µM).

Question: What about the “MIC Enterococcus faecium (GC 4557)” value (Enterococcus sp.; strain GC 4557) of the same compound?
Answer: Its value is 0.5 µg/mL (≈ 0.363 µM).

Question: What about the “MIC Enterococcus avium (GC 4558)” value (Enterococcus sp.; strain GC 4558) of the same compound?
Answer: Its value is 2 µg/mL (≈ 1.45 µM).

Question: What about the “MIC Escherichia coli (ATCC 25922)” value (Escherichia coli) of the same compound?
Answer: The value was 32 µg/mL (≈ 23.2 µM).

Question: And the “MIC Coagulase Negative Staphylococcus (GC 4547)” value (Staphylococcus sp.)?
Answer: Its value is 0.5 µg/mL (≈ 0.363 µM).

Question: And the “MIC Coagulase Negative Staphylococcus (GC 4548)” value (Staphylococcus sp.)?
Answer: Its value is 1 µg/mL (≈ 0.726 µM).

Question: What about the “MIC Coagulase Negative Staphylococcus (GC 4549)” value (Staphylococcus sp.) of the same compound?
Answer: Its value is 0.5 µg/mL (≈ 0.363 µM).

Question: What about the “MIC Coagulase Negative Staphylococcus (GC 4551)” value (Staphylococcus sp.) of the same compound?
Answer: The value was 1 µg/mL (≈ 0.726 µM).

Question: And the “MIC Coagulase Negative Staphylococcus (ID-3941)” value (Staphylococcus sp.)?
Answer: The value was 1 µg/mL (≈ 0.726 µM).

Question: And the “MIC Staphylococcus aureus (ATCC 29213)” value (Staphylococcus sp.)?
Answer: The value was 1 µg/mL (≈ 0.726 µM).

Question: What about the “MIC Staphylococcus aureus (GC 1131)” value (Staphylococcus sp.) of the same compound?
Answer: The value was 1 µg/mL (≈ 0.726 µM).

Question: What about the “MIC Staphylococcus aureus (GC 4541)” value (Staphylococcus sp.) of the same compound?
Answer: The value was 1 µg/mL (≈ 0.726 µM).

Question: What about the “MIC Staphylococcus aureus (GC 4542)” value (Staphylococcus sp.) of the same compound?
Answer: The value was 1 µg/mL (≈ 0.726 µM).

Question: What about the “MIC Staphylococcus aureus (GC 4544)” value (Staphylococcus sp.) of the same compound?
Answer: The value was 1 µg/mL (≈ 0.726 µM).

Question: What about the “MIC Staphylococcus aureus (GC 4545)” value (Staphylococcus sp.) of the same compound?
Answer: The value was 1 µg/mL (≈ 0.726 µM).

Question: And the “MIC Staphylococcus aureus-SMITH (GC 4543)” value (Staphylococcus sp.)?
Answer: The value was 1 µg/mL (≈ 0.726 µM).

Question: And the “MIC Staphylococcus haemolyticus (GC 4546)” value (Staphylococcus sp.)?
Answer: Its value is 1 µg/mL (≈ 0.726 µM).

Question: And the “MIC Staphylococcus aureus (GC 1131)” value (Staphylococcus sp.; inoculum 5×10^5 CFU/mL, strain GC 1131)?
Answer: Its value is 1 µg/mL (≈ 0.726 µM).

Question: What about the “MIC Staphylococcus aureus (ATCC 29213)” value (Staphylococcus sp.; strain ATCC 29213) of the same compound?
Answer: The value was 1 µg/mL (≈ 0.726 µM).

Question: And the “MIC Staphylococcus aureus (GC 4541)” value (Staphylococcus sp.; strain GC 4541)?
Answer: The value was 1 µg/mL (≈ 0.726 µM).

Question: What about the “MIC Staphylococcus aureus (GC 4542)” value (Staphylococcus sp.; strain GC 4542) of the same compound?
Answer: The value was 1 µg/mL (≈ 0.726 µM).

Question: What about the “MIC Staphylococcus aureus (GC 4544)” value (Staphylococcus sp.; strain GC 4544) of the same compound?
Answer: The value was 1 µg/mL (≈ 0.726 µM).

Question: And the “MIC Staphylococcus aureus (GC 4545)” value (Staphylococcus sp.; strain GC 4545)?
Answer: The value was 1 µg/mL (≈ 0.726 µM).

Question: And the “MIC Staphylococcus haemolyticus (GC 4546)” value (Staphylococcus sp.; strain GC 4546)?
Answer: The value was 1 µg/mL (≈ 0.726 µM).

Question: And the “MIC Coagulase Negative Staphylococcus (GC 4547)” value (Staphylococcus sp.; strain GC 4547)?
Answer: The value was 0.5 µg/mL (≈ 0.363 µM).

Question: And the “MIC Coagulase Negative Staphylococcus (GC 4548)” value (Staphylococcus sp.; strain GC 4548)?
Answer: Its value is 1 µg/mL (≈ 0.726 µM).

Question: What about the “MIC Coagulase Negative Staphylococcus (GC 4549)” value (Staphylococcus sp.; strain GC 4549) of the same compound?
Answer: Its value is 0.5 µg/mL (≈ 0.363 µM).

Question: What about the “MIC Coagulase Negative Staphylococcus (GC 4551)” value (Staphylococcus sp.; strain GC 4551) of the same compound?
Answer: The value was 1 µg/mL (≈ 0.726 µM).

Question: And the “MIC Coagulase Negative Staphylococcus (ID-3941)” value (Staphylococcus sp.; strain ID-3941)?
Answer: The value was 1 µg/mL (≈ 0.726 µM).

Question: What about the “MIC Staphylococcus aureus-SMITH (GC 4543)” value (Staphylococcus sp.; strain SMITH GC 4543) of the same compound?
Answer: The value was 1 µg/mL (≈ 0.726 µM).

Question: What about the “MIC Streptococcus agalactiae (GC 4564)” value (Streptococcus sp.; Streptococcus agalactiae (GC 4564)) of the same compound?
Answer: The value was 1 µg/mL (≈ 0.726 µM).

Question: And the “MIC Streptococcus pneumoniae (GC 4565)” value (Streptococcus sp.; Streptococcus pneumoniae (GC 4565))?
Answer: The value was 0.5 µg/mL (≈ 0.363 µM).

Question: What about the “MIC Streptococcus pyogenes (ID-3187)” value (Streptococcus sp.; Streptococcus pyogenes (ID-3187)) of the same compound?
Answer: The value was 0.5 µg/mL (≈ 0.363 µM).

Question: What about the “MIC Streptococcus agalactiae (GC 4564)” value (Streptococcus sp.; strain GC 4564) of the same compound?
Answer: The value was 1 µg/mL (≈ 0.726 µM).

Question: And the “MIC Streptococcus pneumoniae (GC 4565)” value (Streptococcus sp.; strain GC 4565)?
Answer: The value was 0.5 µg/mL (≈ 0.363 µM).

Question: And the “MIC Streptococcus pyogenes (ID-3187)” value (Streptococcus sp.; strain ID-3187)?
Answer: Its value is 0.5 µg/mL (≈ 0.363 µM).

Question: What about the median effective dose (ED50), Enterococcus faecalis (GC 6189) [1] of the same compound?
Answer: Its median effective dose (ED50), Enterococcus faecalis (GC 6189) is 0.28 mg/kg.

Question: And the median effective dose (ED50), Staphylococcus aureus-SMITH (GC 4543) [2]?
Answer: Its median effective dose (ED50), Staphylococcus aureus-SMITH (GC 4543) is 0.14 mg/kg.

Question: What about the median effective dose (ED50), Streptococcus pneumoniae (GC 1894) [3] of the same compound?
Answer: The median effective dose (ED50), Streptococcus pneumoniae (GC 1894) was 0.03 mg/kg.
